# Structures can show the parent of a compound that is named as a salt.
# Experiments:
# [1] = Preparation and optimization of drug suspension formulations; assay type: physicochemical; details: for depot formation when injected into aqueous release medium: PBS, pH 7.4, 37° C.
# Description: The polymer based drug suspensions were prepared by: (1) Placebo formulation: 50:50 Poly(DL-lactide-co-glycolide) (PLGA), MW 10 or 27 kDa, or Poly(lactic acid) (PLA) MW 10 kDa, was mixed with N-methyl-2-pyrrolidone (NMP) or a combination of NMP and DMSO (e.g. 1:1 v/v) at various weight ratios of PLGA/solvent (w/w) and allowed to dissolve by continuous mixing at room temperature (Placebo). […] (2) Drug loading: […] (3) Depot formation: A sample from the resulting drug-loaded suspension formulation (30 μL, 30±3 mg) was injected into 200 mL of 0.01 M PBS pH 7.4 using a pipette and incubated at 37° C. for 24 h to produce a spherical implant, as an example. […] Of importance, but without being limited to any particular theory or mechanism of action, is the ratio of the polymer:solvent:drug that achieves high drug loading in a stable polymeric suspension formulation and which is correlated to the drug's saturation solubility in the solvent system.
# HIV = details: protein-adjusted, cited from earlier work; for 4×PA-IC90: benchmark for protection
# [2] = In vivo pharmacokinetics of MPT ISFI formulations; set-up: species or system mice
# Description: FIGS. 18A to 18E. Drug concentrations in plasma of MPT ISFI formulations. Plasma concentrations of (FIG. 18A) DTG (278 mg/kg, 50 μL injection) when co-formulated with MPA or ENG (n=6-12/timepoint per group), (FIG. 18B) CAB (1215 mg/kg, 50 μL injection) when co-formulated with MPA or ENG (n=6-12/timepoint per group), (FIG. 18C) MPA (70-76 mg/kg, 50 μL injection) when co-formulated with DTG or CAB (n=6-12/timepoint per group), and (FIG. 18D) ENG (70-151 mg/kg, 50 μL injection) when co-formulated with DTG or CAB (n=6-12/timepoint per group). […] (FIG. 18E) R^2 values for mathematical models of zero-order, first-order, and diffusion-controlled (Higuchi) release.
# Pharmacokinetic (PK) studies were carried out in mice over 90 days to assess in vivo drug release of MPT ISFI formulations. DTG, CAB, ENG, and MPA plasma concentrations were quantified using a high-performance liquid chromatography-tandem mass spectrometry LC/MS-MS method and were plotted over 90 days (FIG. 18).
# Moreover, the release kinetics of DTG, CAB, MPA, and ENG were assessed against three mathematical models (zero-order, first-order, and diffusion-controlled (Higuchi) (Gouda, Baishya et al. 2017)).
# [3] = Drug saturation solubility studies; assay type: physicochemical; details: for solubility: 21 °C, thermodynamic from solid
# Description: The saturation concentration of each drug in various solvents and/or solvent combinations was determined. Drugs were then formulated in ISFI formulations containing 1:1, 1:1.5, 1:2, or 1:4 w/w ratios of PLGA/solvent, as exemplary starting points. For example, for DTG, 25 mg of DTG was added to individual vials containing 100 mg of solvent or PLGA/N-MP placebo ISFI solution. The mixture was mixed thoroughly using a vortex with short-warming for several cycles, and stirred at room temperature (RT), e.g. about 20-22° C., for about 24-48 h. Samples were subsequently centrifuged for 30 min at 13,000 rpm (Eppendorf Centrifuge 5417C, USA) to remove excess undissolved drug. Sample aliquots (1 mg, n=4) were collected from the saturated supernatant and diluted with acetonitrile (ACN). Drug concentration in the saturated aliquots was determined by HPLC analysis.
# A reverse-phase HPLC analysis was carried out with a Finnigan Surveyor HPLC system (Thermo Finnigan, San Jose, California, USA) with a Photodiode Array (PDA) Plus Detector, auto-sampler, and LC Pump Plus. The stationary phase utilized for the analysis was a Inertsil ODS-3 column (4 μm, 4.6 Å˜150 mm, [GL Sciences, Torrance, CA]) maintained at 40° C. Chromatographic separation was achieved by gradient elution using a mobile phase consisting of 0.1% trifluoroacetic acid in water and ACN (H2O/ACN 95:5 v/v). The flow rate was 1.0 mL/min and the total run time was 25 min for each 25 μL injection.
# [4] = published CAB population PK model, mean parameter; cited from earlier work
# [5] = CAB MPT ISFI in vitro release studies; assay type: physicochemical; details: for in vitro release as single-drug ISFI versus co-formulated: CAB with either hormone, MPA or ENG with CAB (ENG up to 60 days)
# Description: Drug release kinetics from various implant formulations was evaluated by incubating solid implants (25 mg±5 mg) into 200 mL of release medium under sink conditions (0.01 M PBS pH 7.4 with 2% solutol HS) at 37° C. for up to 6 months. Sample aliquots (1 mL) were collected at various time points and replaced with fresh release medium. The release medium was completely removed and replaced with fresh medium every week to maintain sink conditions. Drug concentration in the release samples was quantified by HPLC using the method described above. Cumulative drug release was calculated from the HPLC analysis and normalized to the total mass of drug in the implant. All experiments were performed in quadruplicate.
# In vitro release of single-drug ISFIs vs. MPT ISFIs were evaluated to assess drug-drug interactions. All ISFI liquid suspensions were stable and homogenous, elicited <15% burst release, sustained release for 90 days, and above target release rates.
# [6] = Suspension stability studies; assay type: physicochemical; details: polymer:solvent 1:2
# Description: Eight (8) formulations were prepared and evaluated for stability. The formulations were placed in a water bath at 37° C. with shaking overnight and then vortexed for about 2 min upon removal. Sample aliquots (about 1 mg, n=4) were collected from each formulation and analyzed by HPLC to determine drug homogeneity distribution within the formulation. All suspension formulations were reevaluated for homogeneity after at least 24 h storage at room temperature (RT) to determine stability of suspensions at RT.
# [7] = In vitro release of chemotherapeutic ISFIs; assay type: physicochemical
# Description: ISFI formulations were prepared with two different chemotherapeutic drugs, paclitaxel (PTX) and gemcitabine (Gem) and investigated for in vitro release kinetics (PTX and Gem ISFIs; FIGS. 21A-21C and 22A-22B) and for in vivo safety and pharmacokinetics (PTX ISFI; FIG. 23).
# [8] = DMSO, organic solvent or mixture, solvent DMSO
# [9] = 167 mg/g in 6:1 w/w PLA (10 kDa):Pluronic L61, NMP
# [10] = 200 mg/g in 9:1 w/w PLA (10 kDa):Pluronic L61, NMP
compound,measurement,setting,value
"C[C@@H]1CCO[C@H]2Cn3cc(C(=O)NCc4ccc(F)cc4F)c(=O)c(O)c3C(=O)N12 [DTG, Dolutegravir]",suspension formation when loaded above saturation concentration in PLGA/solvent placebo,[1],formed stable syringeable formulations
same,depot formation when injected into aqueous release medium,[1],formation of stable depots
same,4×PA-IC90,HIV,0.256 µg/mL
same,1×PA-IC90,HIV,0.064 µg/mL
same,plasma concentrations when co-formulated with either hormone (MPA or ENG),"[2]; mouse, in vivo",no difference (p>0.05)
same,solubility,[3]; [8],55 ± 4.5 mg/mL
same,solubility,"[3]; NMP, organic solvent or mixture, solvent NMP",269 ± 7.25 mg/mL
same,solubility,"[3]; NMP:DMSO (1:1 w/w), organic solvent or mixture, solvent NMP:DMSO (1:1 w/w)",229.3 ± 1.6 mg/mL
same,Saturation Solubility,[3]; solvent PBS + 2% Solutol,0.56 ± 0.004 mg/mL
"C[C@H]1CO[C@@H]2Cn3cc(C(=O)NCc4ccc(F)cc4F)c(=O)c(O)c3C(=O)N12 [CAB, Cabotegravir]",suspension formation when loaded above saturation concentration in PLGA/solvent placebo,[1],formed stable syringeable formulations
same,depot formation when injected into aqueous release medium,[1],formation of stable depots
same,4×PA-IC90,HIV,0.664 µg/mL
same,1×PA-IC90,HIV,0.166 µg/mL
same,CL,[4],151 mL/h
same,Q,[4],507 mL/h
same,V2,[4],5270 mL
same,V3,[4],2430 mL
same,in vitro release as single-drug ISFI versus co-formulated,[5],comparable (p>0.05)
same,plasma concentrations when co-formulated with either hormone (MPA or ENG),"[2]; mouse, in vivo",no difference (p>0.05)
same,solubility,"[3]; (NMP:DMSO 1:1 w/w):Tween 20 (9:1 w/w), organic solvent or mixture, solvent (NMP:DMSO 1:1 w/w):Tween 20 (9:1 w/w)",107 ± 3.05 mg/mL
same,solubility,[3]; [8],38 mg/mL
same,solubility,"[3]; NMP:DMSO (2:8 w/w), organic solvent or mixture, solvent NMP:DMSO (2:8 w/w)",52.2 ± 6.39 mg/mL
same,solubility,"[3]; NMP:DMSO (9:1 w/w), organic solvent or mixture, solvent NMP:DMSO (9:1 w/w)",144 ± 1.99 mg/mL
same,solubility,"[3]; NMP:Gelucire 44/14 (9:1 w/w), organic solvent or mixture, solvent NMP:Gelucire 44/14 (9:1 w/w)",134 ± 3.81 mg/mL
same,solubility,"[3]; NMP:HP-b-CD (6:4 w/w), organic solvent or mixture, solvent NMP:HP-b-CD (6:4 w/w)",89.6 ± 5.49 mg/mL
same,solubility,"[3]; NMP:HP-b-CD (9:1 w/w), organic solvent or mixture, solvent NMP:HP-b-CD (9:1 w/w)",158.2 ± 1.12 mg/mL
same,solubility,"[3]; NMP:b-CD (6:4 w/w), organic solvent or mixture, solvent NMP:b-CD (6:4 w/w)",81.8 ± 2.35 mg/mL
same,solubility,"[3]; PBS, aqueous buffer, solvent PBS",0.014 ± 0.001 mg/mL
same,Saturation Solubility,[3]; solvent DMSO,38.0 mg/mL
same,Saturation Solubility,[3]; solvent NMP,131.7 ± 3.66 mg/mL
same,Saturation Solubility,[3]; solvent NMP:DMSO (1:1 w/w),167.12 ± 12.04 mg/mL
same,Saturation Solubility,[3]; solvent PBS + 2% Solutol,0.06 ± 0.002 mg/mL
"C#C[C@]1(O)CC[C@H]2[C@@H]3CCC4=CC(=O)CC[C@@H]4[C@H]3C(=C)C[C@@]21CC [ENG, entonogestrel]",in vitro release as single-drug ISFI versus co-formulated,[5],no difference (p>0.05)
same,in vitro release as single-drug ISFI versus co-formulated with CAB,[5]; beyond 60 days,significantly different (p<0.05)
same,plasma concentrations over the study,"[2]; mouse, in vivo",maintained during the 90-day study
"Nc1ccn([C@@H]2CS[C@H](CO)O2)c(=O)n1 [3TC, lamuvidine]",suspension formation when loaded above saturation concentration in PLGA/solvent placebo,[1],did not form successful suspensions
"CC(=O)O[C@]1(C(C)=O)CC[C@H]2[C@@H]3C[C@H](C)C4=CC(=O)CC[C@]4(C)[C@H]3CC[C@@]21C [MPA, medroxyprogesterone acetate]",in vitro release as single-drug ISFI versus co-formulated,[5],difference (p<0.05)
same,best-fit model of in vivo release,"[2]; MPT ISFIs, 90-day PK",zero-order release model
same,plasma concentrations over the study,"[2]; in MPT ISFIs, 90-day study",maintained during the 90-day study
same,solubility,"[3]; organic solvent or mixture, solvent NMP:DMSO (1:1 w/w)",33.6 ± 0.9 mg/mL
"C#C[C@]1(CO)O[C@@H](n2cnc3c(N)nc(F)nc32)C[C@@H]1O [EFdA, Islatravir]",suspension formation when loaded above saturation concentration in PLGA/solvent placebo,[1],did not form successful suspensions
same,depot formation when injected into aqueous release medium,[1],did not form a stable spherical depot
same,24 h-Burst,[6]; [9],64%
same,Depot Forming,[6]; [9],YES
same,24 h-Burst,[6]; [10],58%
same,Depot Forming,[6]; [10],YES
"C[C@H]1CO[C@@H]2Cn3cc(C(=O)NCc4ccc(F)cc4F)c(=O)c(O)c3C(=O)N12 [CAB—Na salt, Cabotegravir sodium]",Saturation Solubility,[3]; solvent DMSO,31.6 ± 0.96 mg/mL
same,Saturation Solubility,[3]; solvent NMP,47.5 ± 1.72 mg/mL
same,Saturation Solubility,[3]; solvent NMP:DMSO (1:1 w/w),49.1 ± 1.2 mg/mL
same,Saturation Solubility,[3]; solvent PBS + 2% Solutol,1.83 ± 0.7 mg/mL
"Nc1ccn([C@@H]2O[C@H](CO)[C@@H](O)C2(F)F)c(=O)n1 [Gem, gemcitabine]",in vitro release from ISFI,[7],exhibited sustained release in vitro
"CC(=O)O[C@H]1C(=O)[C@@]2(C)[C@H]([C@H](OC(=O)c3ccccc3)[C@]3(O)C[C@H](OC(=O)[C@H](O)[C@@H](NC(=O)c4ccccc4)c4ccccc4)C(C)=C1C3(C)C)[C@]1(OC(C)=O)CO[C@@H]1C[C@@H]2O [PTX, paclitaxel]",in vitro release from ISFI,[7],exhibited sustained release in vitro
same,burst release in 24 h,[7]; ISFI,< 2%
same,sustained release duration,[7]; ISFI,> 60 days

# — patent US20240285769A1, “INJECTABLE, BIODEGRADABLE AND REMOVABLE POLYMER BASED DRUG SUSPENSION FOR ULTRA-LONG-ACTING DRUG DELIVERY” (The University of North Carolina at Chapel Hill, priority 2021, published 2024)
